Tests used:
[1] = molecular target: T1, human aryl hydrocarbon receptor (AHR) (Homo sapiens, UniProt P35869); assay: gel shift (EMSA) of in vitro translated AHR/ARNT; HepG2 reporter; format: cell-based; design: in vitro translated human AHR; with ARNT
Target sequence in this assay (P35869 11-848): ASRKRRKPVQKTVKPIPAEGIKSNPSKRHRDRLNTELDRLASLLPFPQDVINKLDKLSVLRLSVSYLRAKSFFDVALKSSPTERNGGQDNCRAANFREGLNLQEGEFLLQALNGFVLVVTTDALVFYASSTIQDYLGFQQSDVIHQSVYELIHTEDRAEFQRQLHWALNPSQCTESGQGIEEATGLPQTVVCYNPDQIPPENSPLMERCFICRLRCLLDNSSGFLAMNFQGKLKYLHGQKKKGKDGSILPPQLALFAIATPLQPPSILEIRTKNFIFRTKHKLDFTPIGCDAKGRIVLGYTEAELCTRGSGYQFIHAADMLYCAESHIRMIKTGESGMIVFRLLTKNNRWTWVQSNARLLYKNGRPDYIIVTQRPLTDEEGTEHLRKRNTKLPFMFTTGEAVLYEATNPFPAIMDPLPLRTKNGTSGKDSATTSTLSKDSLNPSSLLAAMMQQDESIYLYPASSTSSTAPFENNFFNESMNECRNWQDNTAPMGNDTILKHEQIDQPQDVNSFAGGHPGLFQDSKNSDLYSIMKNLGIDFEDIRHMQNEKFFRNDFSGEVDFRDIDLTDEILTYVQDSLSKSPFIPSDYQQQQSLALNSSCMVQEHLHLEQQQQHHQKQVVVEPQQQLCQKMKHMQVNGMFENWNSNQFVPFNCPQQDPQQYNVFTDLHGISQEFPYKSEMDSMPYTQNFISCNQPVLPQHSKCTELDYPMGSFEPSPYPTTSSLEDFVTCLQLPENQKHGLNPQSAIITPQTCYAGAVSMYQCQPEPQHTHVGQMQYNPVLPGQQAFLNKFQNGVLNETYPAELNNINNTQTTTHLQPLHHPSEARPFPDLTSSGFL
Target sequence in this assay (P27540 2-789 partner): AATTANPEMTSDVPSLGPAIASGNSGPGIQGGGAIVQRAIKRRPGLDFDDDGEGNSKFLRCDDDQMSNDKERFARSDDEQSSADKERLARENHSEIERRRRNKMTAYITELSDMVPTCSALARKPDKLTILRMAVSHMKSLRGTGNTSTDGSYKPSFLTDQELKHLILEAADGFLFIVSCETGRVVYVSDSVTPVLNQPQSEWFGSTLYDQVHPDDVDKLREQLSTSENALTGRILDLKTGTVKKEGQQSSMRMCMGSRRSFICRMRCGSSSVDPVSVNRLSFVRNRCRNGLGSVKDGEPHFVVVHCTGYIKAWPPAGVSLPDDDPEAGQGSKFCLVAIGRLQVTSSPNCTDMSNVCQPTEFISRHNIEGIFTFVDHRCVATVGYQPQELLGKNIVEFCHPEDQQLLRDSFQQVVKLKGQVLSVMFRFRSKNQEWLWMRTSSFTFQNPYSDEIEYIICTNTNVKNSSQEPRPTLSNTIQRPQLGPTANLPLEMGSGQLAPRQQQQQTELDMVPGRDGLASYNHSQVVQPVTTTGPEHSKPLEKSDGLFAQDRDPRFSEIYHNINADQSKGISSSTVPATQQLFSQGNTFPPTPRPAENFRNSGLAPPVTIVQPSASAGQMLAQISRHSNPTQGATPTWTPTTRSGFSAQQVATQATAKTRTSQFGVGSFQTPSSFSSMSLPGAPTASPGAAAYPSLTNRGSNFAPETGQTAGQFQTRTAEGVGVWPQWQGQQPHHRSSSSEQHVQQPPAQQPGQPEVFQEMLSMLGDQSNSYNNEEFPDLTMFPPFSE

[2] = molecular target: T2, chimpanzee AHR (Pan troglodytes, UniProt K7AJA4); assay: gel shift (EMSA) of in vitro translated AHR/ARNT, […] indole; format: cell-based
T2 construct: in vitro translated chimpanzee AHR; with ARNT
T2 sequence (K7AJA4 1-850): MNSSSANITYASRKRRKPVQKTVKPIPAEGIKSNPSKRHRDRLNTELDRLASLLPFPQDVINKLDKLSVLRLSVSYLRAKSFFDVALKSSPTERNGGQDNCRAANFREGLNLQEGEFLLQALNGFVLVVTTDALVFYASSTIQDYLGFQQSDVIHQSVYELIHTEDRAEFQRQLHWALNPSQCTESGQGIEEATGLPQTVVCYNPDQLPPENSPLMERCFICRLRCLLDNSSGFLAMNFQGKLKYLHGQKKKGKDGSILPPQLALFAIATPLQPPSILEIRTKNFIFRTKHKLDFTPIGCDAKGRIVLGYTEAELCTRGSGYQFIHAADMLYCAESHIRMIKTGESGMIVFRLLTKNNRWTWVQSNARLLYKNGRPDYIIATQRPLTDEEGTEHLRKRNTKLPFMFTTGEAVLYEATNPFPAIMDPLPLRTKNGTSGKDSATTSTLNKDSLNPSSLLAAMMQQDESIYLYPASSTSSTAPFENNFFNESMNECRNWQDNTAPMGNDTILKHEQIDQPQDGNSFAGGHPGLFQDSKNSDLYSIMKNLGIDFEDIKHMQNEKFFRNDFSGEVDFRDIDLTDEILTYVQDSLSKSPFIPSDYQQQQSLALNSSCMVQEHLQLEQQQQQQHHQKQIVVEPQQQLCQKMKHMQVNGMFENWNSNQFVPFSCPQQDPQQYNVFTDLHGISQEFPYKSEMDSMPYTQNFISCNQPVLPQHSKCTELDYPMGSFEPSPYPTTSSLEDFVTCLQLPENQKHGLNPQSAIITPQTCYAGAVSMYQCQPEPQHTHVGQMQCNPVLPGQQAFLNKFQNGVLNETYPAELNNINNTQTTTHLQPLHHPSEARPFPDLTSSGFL

[3] = molecular target: T1, human aryl hydrocarbon receptor (AHR); assay: competition with radioiodinated photoaffinity ligand in hAHR liver cytosol; also gel shift with in vitro translated hAHR/ARNT; design: human AHR transgene expressed in mouse liver (hepatic cytosol)
Target sequence in this assay (P35869 11-848): as the sequence (P35869 11-848) above

[4] = molecular target: T2, chimpanzee AHR; assay: gel shift (EMSA) of in vitro translated AHR/ARNT, […] TCDD; format: cell-based

## Cc1c[nH]c2ccccc12 [3-MI, 3-methyl indole]
[1]
  gel shift (EMSA) of in vitro translated AHR/ARNT; HepG2 reporter: 3-methyl indole, like indole was associated with enhanced binding of AHR/ARNT to its cognate response element

## c1ccc2[nH]ccc2c1 [indole]
[2]
  gel shift (EMSA) of in vitro translated AHR/ARNT, 20 μM indole: revealed chimpanzee AHR to be sensitive to both TCDD and indole-mediated activation
[3]
  competition with radioiodinated photoaffinity ligand in hAHR liver cytosol; also: dose-dependent decrease in PAL binding consistent with indole being a competitor and direct ligand for the human AHR

## Clc1cc2c(cc1Cl)Oc1cc(Cl)c(Cl)cc1O2 [TCDD]
[4]
  gel shift (EMSA) of in vitro translated AHR/ARNT, 10 nM TCDD: revealed chimpanzee AHR to be sensitive to both TCDD and indole-mediated activation
